What was measured:
Type in all cases: cell-based
TYK2 [1] = biological target: T1, TYK2 (Homo sapiens, UniProt P29597); assay: TYK2 degradation MSD assay in OCI-LY10 cells; set-up: endogenous in cells; host or cells: EBV-B cells; conditions: 4 to 24 hours incubation, read-out: TYK2 MSD DC50 rating in OCI-LY10
Summary of the method: (§1)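 TYK2 levels in lysed cells, detected via antibody capture and SULFO-TAG electrochemiluminescence, were compared across a nine-point threefold compound dilution (highest 1 to 10 μM) after 4–24 h culture at 37° C under 5% CO2. Four-parameter nonlinear regression of the dose response yielded DC50.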

TYK2 [2] = biological target: T1, TYK2; assay: TYK2 degradation MSD assay in human PBMC cells; set-up: endogenous in cells; host or cells: human PBMC; conditions: 4 to 24 hours incubation, read-out: TYK2 MSD DC50 rating in human PBMC
Summary of the method: as §1

TYK2 [3] = biological target: T1, TYK2; assay: TYK2 degradation MSD assay in EBV-B cells; set-up: endogenous in cells; host or cells: EBV-B cells; conditions: 4 to 24 hours incubation, read-out: TYK2 MSD DC50 rating in EBV-B
Summary of the method: as §1

T1 sequence (P29597 whole entry): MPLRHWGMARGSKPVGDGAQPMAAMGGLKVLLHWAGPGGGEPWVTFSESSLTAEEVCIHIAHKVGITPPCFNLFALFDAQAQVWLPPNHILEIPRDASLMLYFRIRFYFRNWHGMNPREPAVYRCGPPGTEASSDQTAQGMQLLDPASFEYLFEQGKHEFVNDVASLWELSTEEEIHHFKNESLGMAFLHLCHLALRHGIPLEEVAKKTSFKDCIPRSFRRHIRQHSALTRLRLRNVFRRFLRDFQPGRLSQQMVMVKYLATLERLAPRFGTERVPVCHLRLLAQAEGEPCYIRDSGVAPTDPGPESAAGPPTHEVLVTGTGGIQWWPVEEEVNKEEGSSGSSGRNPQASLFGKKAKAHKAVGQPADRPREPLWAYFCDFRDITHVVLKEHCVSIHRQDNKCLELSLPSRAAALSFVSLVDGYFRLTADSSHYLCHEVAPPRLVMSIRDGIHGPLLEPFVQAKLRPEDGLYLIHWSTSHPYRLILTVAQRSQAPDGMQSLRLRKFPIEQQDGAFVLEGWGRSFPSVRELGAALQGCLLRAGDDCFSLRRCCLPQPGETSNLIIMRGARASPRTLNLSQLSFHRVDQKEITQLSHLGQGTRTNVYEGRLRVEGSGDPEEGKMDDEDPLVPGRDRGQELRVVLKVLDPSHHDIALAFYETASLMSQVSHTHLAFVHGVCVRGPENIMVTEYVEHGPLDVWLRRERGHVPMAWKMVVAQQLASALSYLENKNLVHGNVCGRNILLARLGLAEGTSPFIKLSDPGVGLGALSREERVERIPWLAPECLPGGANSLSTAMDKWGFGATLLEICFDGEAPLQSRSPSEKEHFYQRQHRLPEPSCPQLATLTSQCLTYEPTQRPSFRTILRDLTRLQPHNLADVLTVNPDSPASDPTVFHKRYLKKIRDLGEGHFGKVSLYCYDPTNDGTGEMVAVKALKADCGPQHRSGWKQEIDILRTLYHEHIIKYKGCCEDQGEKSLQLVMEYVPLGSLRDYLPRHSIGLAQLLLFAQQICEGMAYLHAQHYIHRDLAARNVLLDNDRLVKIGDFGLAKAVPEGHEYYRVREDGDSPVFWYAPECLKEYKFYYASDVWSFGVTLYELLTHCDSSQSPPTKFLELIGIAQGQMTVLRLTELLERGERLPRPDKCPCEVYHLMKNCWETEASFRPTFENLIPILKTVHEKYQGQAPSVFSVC

SMILES | DC50 (TYK2 [1]) [nM] | DC50 (TYK2 [2]) [nM] | DC50 (TYK2 [3]) [nM]
CNc1cc(-c2ccc(-c3ccc(CN4CCC(CN5CCN(c6ccc7c(c6)n(C)c(=O)n7C6CCC(=O)NC6=O)CC5)CC4)cn3)cc2)nn2c(C(=O)N[C@@H]3C[C@@H]3F)cnc12 (stereo partly drawn) [Example K493] | 1 to 10 | > 100 | > 100
CNc1cc(Nc2cccn(-c3ccc(C(=O)NCCOCCOCCOCCOCCc4ccc5c(c4)n(C)c(=O)n5C4CCC(=O)NC4=O)cn3)c2=O)nn2c(C(=O)N[C@@H]3C[C@@H]3F)cnc12 (stereo partly drawn) [Example K263] | > 100 | 1 to 10 | > 100
CNC(=O)c1cnc(Nc2ccc(N3CCN(c4cccc5c4n(C)c(=O)n5C4CCC(=O)NC4=O)CC3)cn2)cc1Nc1cccc(-c2ncc(F)cn2)c1OC (stereo not drawn) [Example K702] | > 100 | > 100 | 1 to 10
CNc1cc(Nc2cccc(-c3ccc(C(=O)N4CCN(c5ccc(-c6ccc7c(c6)n(C)c(=O)n7C6CCC(=O)NC6=O)cc5)CC4)cn3)c2)nn2c(C(=O)N[C@@H]3C[C@@H]3F)cnc12 (stereo partly drawn) [Example K633] | < 1 | > 100 | > 100
CCNC(=O)c1cnc(Nc2ccc(C(=O)N(C)C3CCN(c4cccc5c4n(C)c(=O)n5C4CCC(=O)NC4=O)CC3)cn2)cc1Nc1cccc(-c2ncc(F)cn2)c1OC (stereo not drawn) [Example K169] | > 100 | > 100 | 1 to 10
CNc1cc(-c2cccc(C(=O)NCCCCCCCCc3ccc4c(c3)n(C)c(=O)n4C3CCC(=O)NC3=O)c2)nn2c(C(=O)NC3C[C@@H]3F)cnc12 (stereo partly drawn) [Example K309] | > 100 | > 100 | > 100
CNC(=O)c1cnc(Nc2cc(C(=O)NCCCCc3ccc4c(c3)n(C)c(=O)n4C3CCC(=O)NC3=O)ccn2)cc1Nc1cccc(-c2ncc(F)cn2)c1OC (stereo not drawn) [Example K126] | > 100 | < 1 | > 100
CNc1cc(Nc2cccn(-c3ccc(C(=O)N4CCC(CN5CCCC(c6cccc7c6n(C)c(=O)n7C6CCC(=O)NC6=O)C5)CC4)cn3)c2=O)nn2c(C(=O)N[C@@H]3C[C@@H]3F)cnc12 (stereo partly drawn) [Example K451] | < 1 | > 100 | > 100
CNc1cc(Nc2cccn(-c3cc(C(=O)NCCOCCOCCOCCOCCOCCOCCc4cccc5c4n(C)c(=O)n5C4CCC(=O)NC4=O)ccn3)c2=O)nn2c(C(=O)N[C@@H]3C[C@@H]3F)cnc12 (stereo partly drawn) [Example K244] | > 100 | > 100 | > 100
CNc1cc(Nc2cccc(-c3ccc(C(=O)N4CCN(C5CCC(c6ccc(-c7ccc8c(c7)n(C)c(=O)n8C7CCC(=O)NC7=O)cc6)CC5)CC4)cn3)c2OC)nn2c(C(=O)N[C@@H]3C[C@@H]3F)cnc12 (stereo partly drawn) [Example K617] | < 1 | > 100 | > 100
CNc1cc(N2CCc3c(-c4ccc(CN5CCN(c6ccc(-c7ccc8c(c7)n(C)c(=O)n8C7CCC(=O)NC7=O)cc6)CC5)cn4)cccc32)nn2c(-c3cn(C(C)C)nn3)cnc12 (stereo not drawn) [Example K631] | 1 to 10 | > 100 | > 100
CNC(=O)c1cnc(NC(=O)NCCCCCCc2cccc3c2n(C)c(=O)n3C2CCC(=O)NC2=O)cc1Nc1cccc(-c2ncc(F)cn2)c1OC (stereo not drawn) [Example K106] | > 100 | > 100 | > 100
[2H]C([2H])([2H])NC(=O)c1nnc(Nc2ccc(CN(C)CC3CCN(c4ccc5c(c4)n(C)c(=O)n5C4CCC(=O)NC4=O)CC3)cn2)cc1Nc1cccc(F)c1OC (stereo not drawn) [Example K712] | > 100 | > 100 | < 1
CNc1cc(Nc2cccn(-c3ccc(C(=O)NCCCCCCCCCCc4ccc5c(c4)n(C)c(=O)n5C4CCC(=O)NC4=O)cn3)c2=O)nn2c(C(=O)N[C@@H]3C[C@@H]3F)cnc12 (stereo partly drawn) [Example K261] | > 100 | < 1 | 1 to 10
CNc1cc(Nc2cccn(-c3ccc(C(=O)NCCCCc4cncc(N5CCC[C@H](C(=O)Nc6ccc(=O)n(CC(=O)O)c6)C5)c4)cn3)c2=O)nn2c(C(=O)N[C@@H]3C[C@@H]3F)cnc12 [Example K561] | > 100 | > 100 | > 100
CNc1cc(Nc2cccc(C(=O)NCCCCc3ccc4c(c3)n(C)c(=O)n4C3CCC(=O)NC3=O)c2)nn2c(C(=O)N[C@@H]3C[C@@H]3F)cnc12 (stereo partly drawn) [Example K247] | > 100 | > 100 | > 100
CNc1cc(Nc2cccn(C3CCN(C(=O)COCCOCCc4ccc5c(c4)n(C)c(=O)n5C4CCC(=O)NC4=O)CC3)c2=O)nn2c(C(=O)N[C@@H]3C[C@@H]3F)cnc12 (stereo partly drawn) [Example K275] | > 100 | > 100 | > 100
COc1c(Nc2cc(Nc3cc(C(=O)NCCCCc4cccc5c4n(C)c(=O)n5C4CCC(=O)NC4=O)ccn3)ncc2C(=O)NC2CC2)cccc1-c1ncc(F)cn1 (stereo not drawn) [Example K179] | > 100 | 10 to 100 | > 100

SMILES | DC50 (TYK2 [1]) [nM] | DC50 (TYK2 [2]) [nM] | DC50 (TYK2 [3]) [nM]
CNc1cc(Nc2cccc(CN3CCC(CN(C)c4ccc5c(c4)n(C)c(=O)n5C4CCC(=O)NC4=O)CC3)c2)nn2c(C(=O)NC3CC3)cnc12 (stereo not drawn) [Example K606] | > 100 | > 100 | > 100
CNC(=O)c1cnc(Nc2ccc(CN(C)C3CN(c4ccc5c(c4)n(C)c(=O)n5C4CCC(=O)NC4=O)C3)cn2)cc1Nc1cccc(-c2ncc(F)cn2)c1OC (stereo not drawn) [Example K153] | < 1 | < 1 | > 100
CNc1cc(N2CCc3c(N4CCC(CN5CCC(C#Cc6cccc7c6n(C)c(=O)n7C6CCC(=O)NC6=O)CC5)CC4)cccc32)nn2c(C(=O)N[C@@H]3C[C@@H]3F)cnc12 (stereo partly drawn) [Example K635] | 1 to 10 | > 100 | > 100
CNc1cc(Nc2cccc(CN3CC(N4CCN(c5ccc6c(c5)n(C)c(=O)n6C5CCC(=O)NC5=O)CC4)C3)c2)nn2c(C(=O)NC3CC3)cnc12 (stereo not drawn) [Example K603] | 1 to 10 | > 100 | > 100
CNc1cc(Nc2cccc(C3CCN(CC4CCN(c5ccc(-c6cccc7c6n(C)c(=O)n7C6CCC(=O)NC6=O)cc5)CC4)CC3)c2OC)nn2c(C(=O)N[C@@H]3C[C@@H]3F)cnc12 (mixture of isomers) [Example K538] | > 100 | > 100 | > 100
CNc1cc(Nc2cccn(-c3ccc(C(=O)N(C)C4CCN(c5ccc(-c6ccc7c(c6)n(C)c(=O)n7C6CCC(=O)NC6=O)cc5)C4)cn3)c2=O)nn2c(C(=O)N[C@@H]3C[C@@H]3F)cnc12 (stereo partly drawn) [Example K439] | < 1 | > 100 | > 100
CNC(=O)c1cnc(Nc2ccc(CN3CCC(OC4CC(c5ccc6c(c5)n(C)c(=O)n6C5CCC(=O)NC5=O)C4)CC3)cn2)cc1Nc1cccc(-c2ncc(F)cn2)c1OC (stereo not drawn) [Example K159] | > 100 | > 100 | < 1
CNc1cc(Nc2cccn(-c3ccc(C(=O)N[C@H]4CC[C@H](CN(C)C5CCN(Cc6cccc7c6n(C)c(=O)n7C6CCC(=O)NC6=O)CC5)CC4)cn3)c2=O)nn2c(C(=O)N[C@@H]3C[C@@H]3F)cnc12 (stereo partly drawn) [Example K449] | < 1 | > 100 | > 100
Cn1c(=O)n(C2CCC(=O)NC2=O)c2ccc(CCOCCOCCOCCOCCNc3cc(Nc4cccn(-c5ccccn5)c4=O)nn4c(C(=O)NC5C[C@@H]5F)cnc34)cc21 (stereo partly drawn) [Example K202] | > 100 | > 100 | > 100
CNc1cc(Nc2cccn(-c3ccc(CN4CCN(c5ccc(-c6ccc7c(c6)n(C)c(=O)n7C6CCC(=O)NC6=O)cn5)C(=O)C4)cn3)c2=O)nn2c(C(=O)N[C@@H]3C[C@@H]3F)cnc12 (stereo partly drawn) [Example K457] | < 1 | > 100 | > 100
CNC(=O)c1cnc(Nc2ccc(CN(C)C3CCN(c4ccc5c(c4)n(C)c(=O)n5C4CCC(=O)NC4=O)C3)cn2)cc1Nc1cccc(-c2ncc(F)cn2)c1OC (stereo not drawn) [Example K170] | > 100 | > 100 | < 1
CNc1cc(Nc2cccn(-c3cc(C(=O)NCCOCCOCCOCCOCCc4ccc5c(c4)n(C)c(=O)n5C4CCC(=O)NC4=O)ccn3)c2=O)nn2c(C(=O)N[C@@H]3C[C@@H]3F)cnc12 (stereo partly drawn) [Example K241] | > 100 | > 100 | > 100
CNc1cc(Nc2cccc(CN3CC4(CCN(c5ccc6c(c5)n(C)c(=O)n6C5CCC(=O)NC5=O)CC4)C3)c2)nn2c(C(=O)NC3CC3)cnc12 (stereo not drawn) [Example K614] | > 100 | > 100 | > 100
Cn1c(=O)n(C2CCC(=O)NC2=O)c2cccc(C#CCN3CCN(Cc4ccc(-c5cccc(Nc6ccc7ncc(C(=O)NC8CC8)n7n6)c5)nc4)CC3)c21 (stereo not drawn) [Example K433] | > 100 | > 100 | > 100
CNc1cc(-c2cnn(C3CN(C(=O)NCCCCc4ccc5c(c4)n(C)c(=O)n5C4CCC(=O)NC4=O)C3)c2)nn2c(C(=O)N[C@@H]3C[C@@H]3F)cnc12 (stereo partly drawn) [Example K314] | > 100 | > 100 | > 100
CNc1cc(N2CCc3c(-c4cc(CN5CCN(c6ccc(-c7ccc8c(c7)n(C)c(=O)n8C7CCC(=O)NC7=O)cc6)CC5)ccn4)cccc32)nn2c(C(=O)N[C@@H]3C[C@@H]3F)cnc12 (stereo partly drawn) [Example K658] | 1 to 10 | > 100 | > 100
CNc1cc(-c2cnn(C3CCC(CN(C)C4CCN(c5ccc6c(c5)n(C)c(=O)n6C5CCC(=O)NC5=O)CC4)CC3)c2)nn2c(C(=O)N[C@@H]3C[C@@H]3F)cnc12 (stereo partly drawn) [Example K361] | > 100 | > 100 | > 100

Source: US20250051338A1, “TYK2 DEGRADERS AND USES THEREOF” (Kymera Therapeutics, Inc., priority 2021, published 2025)
